Some test systems named below: TK-10 renal; NCI-H226 lung; MCF7 breast; SK-MEL-2 melanoma; SK-MEL-28 melanoma; COLO 205 colon; SNB-75 CNS; U251 CNS; CCRF-CEM leukemia.
Assay in all cases: inhibition of tumour cell growth, NCI panel, 48 h

Molecules are shown by their SMILES.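 Values below derive from 48-hour exposures of cells grown in 96-well plates, with endpoints linearly interpolated between the two concentrations bracketing the appropriate inhibition level. GI50: concentration for 50% inhibition of growth. TGI denotes the concentration required for complete inhibition of growth.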

For `Nc1nc(Cl)cc(Oc2ccc(Cl)cc2)n1`, the TGI in the test with TK-10 renal, in the test on NCI-H226 lung, with MCF7 breast, with SK-MEL-2 melanoma, in the test on SK-MEL-28 melanoma and with COLO 205 colon was greater than 100 µM throughout. In addition, the TGI with SNB-75 CNS, in the test with U251 CNS and with CCRF-CEM leukemia was greater than 100 µM each time.
Take `CN1CN(c2ccccc2)C2(CCN(C(=O)OC(C)(C)C)CC2)C1=O`: the TGI with TK-10 renal, in the test with NCI-H226 lung, in the test with MCF7 breast, with SK-MEL-2 melanoma, in the test with SK-MEL-28 melanoma and with COLO 205 colon was greater than 100 µM throughout. The TGI in the test with SNB-75 CNS, with U251 CNS and in the test with CCRF-CEM leukemia was greater than 100 µM throughout.
As to `COc1cc(/C=[N+](\[O-])c2ccccc2Cl)ccc1OC(=S)S`, the TGI in the test with TK-10 renal is greater than 100 µM; in the test with NCI-H226 lung, greater than 100 µM; in the test with MCF7 breast, greater than 100 µM; with SK-MEL-2 melanoma, greater than 100 µM; in the test with SK-MEL-28 melanoma it was greater than 100 µM; in the test on COLO 205 colon it was 51 µM. Also, the results for the TGI with SNB-75 CNS and with U251 CNS were 63.6 µM and greater than 100 µM, respectively.
With `O=C(N/N=C/c1ccc(O)cc1)NNCCO`, the TGI with TK-10 renal, in the test on NCI-H226 lung, in the test with MCF7 breast, with SK-MEL-2 melanoma, in the test with SK-MEL-28 melanoma and in the test on COLO 205 colon was greater than 100 µM each time. For the same compound, the TGI in the test on SNB-75 CNS, in the test on U251 CNS and with CCRF-CEM leukemia was greater than 100 µM in each case.
In the case of `Cc1ccnc2[nH]c(-c3ccc(Cl)cc3)cc(=O)c12`, the TGI is greater than 100 µM in the test with TK-10 renal; greater than 30.7 µM in the test with NCI-H226 lung; greater than 100 µM in the test with MCF7 breast; greater than 100 µM in the test on SK-MEL-2 melanoma; greater than 100 µM in the test with SK-MEL-28 melanoma; greater than 21.9 µM in the test on COLO 205 colon. Besides, the TGI in the test on SNB-75 CNS was 25.8 µM; in the test on U251 CNS it was greater than 100 µM; in the test with CCRF-CEM leukemia, greater than 100 µM.
For `COc1cc([C@@H]2c3cc4c(cc3[C@H](OC3OC5COC(C(C)C)OC5C(O)C3O)C3COC(=O)[C@@H]32)OCO4)cc(OC)c1OC` (some centres undefined), the TGI in the test with TK-10 renal was greater than 100 µM; with NCI-H226 lung it was 12.6 µM; in the test with MCF7 breast it was 13.2 µM; in the test with SK-MEL-2 melanoma it was 25.4 µM; in the test on SK-MEL-28 melanoma, greater than 100 µM; in the test with COLO 205 colon it was 14.6 µM. The TGI in the test with SNB-75 CNS was 96.8 µM; in the test with U251 CNS, greater than 21.2 µM; with CCRF-CEM leukemia, greater than 29.6 µM.
With `C1=Nc2ccc(cc2)-c2ccc(cc2)N=Cc2ccccc2OCc2cccc(n2)COc2ccccc21`, the TGI in the test with TK-10 renal is greater than 93.3 µM; in the test on NCI-H226 lung, greater than 100 µM; with MCF7 breast it was greater than 100 µM; in the test with SK-MEL-2 melanoma, greater than 76.3 µM; in the test on SK-MEL-28 melanoma, greater than 100 µM; with COLO 205 colon it was greater than 100 µM. Besides, the TGI was 12.1 µM with SNB-75 CNS, greater than 42.8 µM with U251 CNS and greater than 100 µM in the test on CCRF-CEM leukemia.
As to `COC(=O)C1=C(C(=O)OC)SC2(S1)C(C(=O)OC)=C(C(=O)OC)Sc1c2ssc1=O`, the TGI is 3.04 µM in the test on TK-10 renal; 2.97 µM in the test with NCI-H226 lung; 4.65 µM in the test with MCF7 breast; 4.1 µM with SK-MEL-2 melanoma; 3.26 µM in the test with SK-MEL-28 melanoma; 2.08 µM with COLO 205 colon. The TGI was 11.4 µM in the test with SNB-75 CNS, 4.68 µM in the test on U251 CNS and 0.307 µM in the test on CCRF-CEM leukemia.
As for `Cc1ccc(S(=O)(=O)N(CC(O)COc2ccccc2)c2ccccc2Cl)cc1` (centres undefined), the TGI in the test with TK-10 renal is 29.3 µM; with NCI-H226 lung it was 32.3 µM; in the test with MCF7 breast, 58.5 µM; in the test with SK-MEL-2 melanoma, 27 µM; in the test with SK-MEL-28 melanoma, 29.1 µM; in the test with COLO 205 colon, 34 µM. The TGI stood at 41.7 µM with SNB-75 CNS, 29.2 µM in the test with U251 CNS and 40.4 µM in the test with CCRF-CEM leukemia.
Consider `COC(=O)c1cc(NC(=O)Cn2c3ccccc3c3ccccc32)cn1C`, for which the TGI with TK-10 renal was greater than 100 µM; with NCI-H226 lung, 58.5 µM; in the test on MCF7 breast it was greater than 100 µM; in the test with SK-MEL-2 melanoma it was greater than 100 µM; with SK-MEL-28 melanoma, greater than 100 µM; in the test with COLO 205 colon, greater than 100 µM. For the same compound, the TGI in the test with U251 CNS and with CCRF-CEM leukemia was greater than 100 µM each time.
Turning to `CC(=O)OC1CC[C@@]2(C)C(=CC[C@@H]3[C@@H]2CC[C@]2(C)Nc4c(cnn4-c4ccc(F)cc4)C[C@@H]32)C1` (some centres undefined), the TGI in the test on TK-10 renal was greater than 100 µM; in the test with NCI-H226 lung, greater than 100 µM; with MCF7 breast, greater than 95.6 µM; with SK-MEL-2 melanoma, greater than 73.6 µM; in the test with SK-MEL-28 melanoma, greater than 100 µM; in the test on COLO 205 colon, greater than 78.7 µM. In addition, the TGI in the test with SNB-75 CNS was 66.5 µM; in the test on U251 CNS it was 47.3 µM; in the test with CCRF-CEM leukemia it was greater than 100 µM.
On to `O=C(/C=C/c1cc2ccccc2[nH]c1=O)c1ccc(O)cc1`, for which the GI50 with TK-10 renal is 3.81 µM; in the test on NCI-H226 lung it was 3.29 µM; in the test with MCF7 breast, 3.49 µM; in the test on SK-MEL-2 melanoma, 4.13 µM; with SK-MEL-28 melanoma, 5.11 µM; with COLO 205 colon, 4.51 µM. Moreover, the GI50 was 9.3 µM in the test on SNB-75 CNS, 2.6 µM with U251 CNS and 2.38 µM with CCRF-CEM leukemia. Moreover, the TGI with TK-10 renal stood at 11.8 µM; in the test with NCI-H226 lung, 10.9 µM; in the test with MCF7 breast it was 16.8 µM; in the test with SK-MEL-2 melanoma, 13.6 µM; with SK-MEL-28 melanoma it was 19.5 µM; in the test with COLO 205 colon, 19.7 µM. Also, the TGI in the test on SNB-75 CNS was 23 µM; with U251 CNS, 10.9 µM; in the test with CCRF-CEM leukemia, greater than 100 µM.
For `COc1cc2c(cc1OC)C/C(=N\O)c1cc(OC)c(OC)cc1/C=C\2`, the TGI in the test on TK-10 renal is greater than 72.6 µM; with NCI-H226 lung, 45.5 µM; with MCF7 breast, greater than 96.4 µM; in the test on SK-MEL-2 melanoma it was 44.6 µM; with SK-MEL-28 melanoma it was greater than 45 µM; with COLO 205 colon it was 28.7 µM. Moreover, the TGI in the test with SNB-75 CNS was 78.1 µM; in the test with U251 CNS, greater than 41.1 µM; with CCRF-CEM leukemia, greater than 100 µM.

Values taken from PubChem BioAssay (NCI).
